Results: US8853392B2, “Benzamide mGluR5 positive allosteric modulators and methods of making and using same” (Vanderbilt University, priority 2007, dated 2014)
Where two headings read alike, the source gives them in different places.

Biological target: T1, rat mGluR5 (Rattus norvegicus, UniProt P31424)
T1 construct: expressed in transfected cells; host or cells: human embryonic kidney (HEK) cells
Assay: potentiation of mGluR5 response to glutamate, Ca2+ fluorescence (FDSS) in HEK cells transfected with rat mGluR5
Assay type: cell-based
Details: for Emax: HEK293, maximum extent of potentiation, normalized to maximal response to glutamate, read-out: % Glu Max; for EC50: read-out: EC50
Experimental: Human embryonic kidney (HEK) cells transfected with rat mGluR5 were plated in clear bottom assay plates for assay in a Functional Drug Screening System (FDSS). The cells were loaded with a Ca^2+-sensitive fluorescent dye (e.g., Fluo-4), and the plates were washed and placed in the FDSS instrument. After establishment of a fluorescence baseline for twelve seconds, the compounds of the present invention were added to the cells, and the response in cells was measured. Five minutes later, an mGluR5 agonist (e.g., glutamate, 3,5-dihydroxyphenylglycine, or quisqualate) was added to the cells, and the response of the cells was measured. Potentiation of the agonist response of mGluR5 by the compounds in the present invention was observed as an increase in response to non-maximal concentrations of agonist (here, glutamate) in the presence of compound compared to the response to agonist in the absence of compound.
The above described assay operated in two modes. In the first mode, a range of concentrations of the present compounds were added to cells, followed by a single fixed concentration of agonist. If a compound acted as a potentiator, an EC50 value for potentiation and a maximum extent of potentiation by the compound at this concentration of agonist was determined by non-linear curve fitting. In the second mode, several fixed concentrations of the present compounds were added to various wells on a plate, followed by a range of concentrations of agonist for each concentration of present compound; the EC50 values for the agonist at each concentration of compound were determined by non-linear curve fitting. A decrease in the EC50 value of the agonist with increasing concentrations of the present compounds (a leftward shift of the agonist concentration-response curve) is an indication of the degree of mGluR5 potentiation at a given concentration of the present compound. An increase in the EC50 value of the agonist with increasing concentrations of the present compounds (a rightward shift of the agonist concentration-response curve) is an indication of the degree of mGluR5 antagonism at a given concentration of the present compound. The second mode also indicates whether the present compounds also affect the maximum response to mGluR5 to agonists.
Human embryonic kidney (HEK) cells transfected with rat mGluR5 were plated in clear-bottomed, poly-D-lysine-coated assay plates in glutamate-glutamine-free medium growth and incubated overnight at 37° C. in 5% CO2. The following day, cells were loaded with 2 μM calcium indicator dye, fluo-4 AM, for 1 h at 37° C. Dye was removed and replaced with assay buffer containing 1× Hanks balanced salt solution (Invitrogen, Carlsbad, Calif.), 20 mM HEPES, and 2.5 mM probenecid, pH 7.4. Cell plates were then loaded into the Functional Drug Screening System 6000 (FDSS 6000, Hamamatsu, Japan). After establishment of a fluorescence baseline for twelve seconds, the compounds of the present invention were added to the cells, and the response in cells was measured. Five minutes later, an mGluR5 agonist (e.g., glutamate, 3,5-dihydroxyphenylglycine, or quisqualate) was added to the cells, and the response of the cells was measured during a 1 minute incubation with agonists. Typically, the effect of test compounds of the present invention was on an EC20 concentration of glutamate was measured. All test compounds were dissolved and diluted in 100% DMSO and then serially diluted into assay buffer for a 2.5× stock in 0.25% DMSO; stock compounds were then added to the assay for a final DMSO concentration of 0.1%. Calcium fluorescence measures were recorded as fold over basal fluorescence; raw data was then normalized to the maximal response to agonist. Potentiation of the agonist response of mGluR5 by the compounds in the present invention was observed as an increase in response to non-maximal concentrations of agonist (here, glutamate) in the presence of compound compared to the response to agonist in the absence of compound. […]

[1] = Table 1, EC50 for potentiating the mGluR5 receptor, unit inferred
[2] = potentiation of glutamate response, HEK cells transfected with rat mGluR5, SAR tables

T1 sequence (P31424 21-1203): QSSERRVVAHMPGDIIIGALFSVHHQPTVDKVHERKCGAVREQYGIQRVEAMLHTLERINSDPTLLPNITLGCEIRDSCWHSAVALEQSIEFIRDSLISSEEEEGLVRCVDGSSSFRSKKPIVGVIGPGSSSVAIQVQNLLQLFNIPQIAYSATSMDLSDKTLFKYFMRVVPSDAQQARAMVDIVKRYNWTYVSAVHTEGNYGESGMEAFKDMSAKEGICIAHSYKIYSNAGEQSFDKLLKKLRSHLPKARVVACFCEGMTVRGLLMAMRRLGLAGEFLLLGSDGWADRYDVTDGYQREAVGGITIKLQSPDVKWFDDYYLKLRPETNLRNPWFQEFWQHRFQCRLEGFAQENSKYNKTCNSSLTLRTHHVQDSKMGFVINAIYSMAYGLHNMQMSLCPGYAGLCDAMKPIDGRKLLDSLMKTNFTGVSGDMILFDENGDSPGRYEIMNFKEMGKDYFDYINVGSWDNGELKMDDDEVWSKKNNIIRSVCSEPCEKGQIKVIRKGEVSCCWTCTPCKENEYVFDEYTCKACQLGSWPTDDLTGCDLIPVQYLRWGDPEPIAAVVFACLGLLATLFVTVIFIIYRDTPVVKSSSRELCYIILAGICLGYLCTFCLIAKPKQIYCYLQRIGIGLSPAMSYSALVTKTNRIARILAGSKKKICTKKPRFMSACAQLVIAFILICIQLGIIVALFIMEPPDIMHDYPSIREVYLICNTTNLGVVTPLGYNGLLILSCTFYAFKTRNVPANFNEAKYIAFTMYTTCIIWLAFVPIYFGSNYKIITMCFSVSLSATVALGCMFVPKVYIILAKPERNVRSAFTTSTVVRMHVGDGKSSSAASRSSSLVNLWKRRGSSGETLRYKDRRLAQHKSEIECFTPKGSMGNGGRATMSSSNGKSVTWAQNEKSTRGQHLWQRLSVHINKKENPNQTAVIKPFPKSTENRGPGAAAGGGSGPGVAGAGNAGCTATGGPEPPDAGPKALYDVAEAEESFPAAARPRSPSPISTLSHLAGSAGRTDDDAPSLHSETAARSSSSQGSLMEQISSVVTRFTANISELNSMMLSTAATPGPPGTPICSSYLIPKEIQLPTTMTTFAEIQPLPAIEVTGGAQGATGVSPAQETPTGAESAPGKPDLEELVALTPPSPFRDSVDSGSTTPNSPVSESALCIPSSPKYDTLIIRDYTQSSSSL

Compound | Emax (SAR tables) [%] | EC50 [1] [nM] | EC50 [2] [nM] | EC50 (nM) [2]
O=C(c1ccc(C#Cc2ccc(F)cc2F)cc1)N1CCC(O)CC1 [Compound 19g, (4-((2,4-difluorophenyl)ethynyl)phenyl)(4-hydroxypiperidin-1-yl)methanone] | 58 | 2030 | 1970 | 
Cc1ccc(C#Cc2ccc(C(=O)N3CCC(O)CC3)cc2)cc1 [Compound 19h] |  |  |  | inactive
O=C(c1ccc(C#Cc2cccc(C(F)(F)F)c2)cc1)N1CCC(O)CC1 [Compound 19i, (4-hydroxypiperidin-1-yl)(4-((3-(trifluoromethyl)phenyl)ethynyl)phenyl)methanone] | 68 | 2210 | 2060 | 
O=C(c1ccc(C#Cc2ccccn2)cc1)N1CCC(O)CC1 [Compound 19k] | 49 | 2450 | 2210 | 
O=C(c1ccc(C#CC2CCCCC2)cc1)N1CCC(O)CC1 [Compound 19m, (4-(cyclohexylethynyl)phenyl)(4-hydroxypiperidin-1-yl)methanone] | 77 | 1870 | 1790 | 
O=C(NC1CCc2ccccc21)c1ccc(C#Cc2ccccc2)cc1 (centres unmarked) [N-(2,3-dihydro-1H-inden-1-yl)-4-(phenylethynyl)benzamide] |  | 146 |  | 
O=C(NC1Cc2ccccc2C1)c1ccc(C#Cc2ccccc2)cc1 [N-(2,3-dihydro-1H-inden-2-yl)-4-(phenylethynyl)benzamide] |  | 159 |  | 
CN1CCCC1CCNC(=O)c1ccc(C#Cc2ccccc2)cc1 (centres unmarked) [N-(2-(1-methylpyrrolidin-2-yl)ethyl)-4-(phenylethynyl)benzamide] |  | 3530 |  | 
CN(C)CCNC(=O)c1ccc(C#Cc2ccccc2)cc1 [N-(2-(dimethylamino)ethyl)-4-(phenylethynyl)benzamide] |  | 2990 |  | 
O=C(NCCc1ccccc1Cl)c1ccc(C#Cc2ccccc2)cc1 [N-(2-chlorophenethyl)-4-(phenylethynyl)benzamide] |  | 135 |  | 
O=C(NCCC1=CCCCC1)c1ccc(C#Cc2ccccc2)cc1 [N-(2-cyclohexenylethyl)-4-(phenylethynyl)benzamide] |  | 75.3 |  | 
O=C(NCCN1CCOCC1)c1ccc(C#Cc2ccccc2)cc1 [N-(2-morpholinoethyl)-4-(phenylethynyl)benzamide] |  | 137 |  | 
CC(C)(C)CCNC(=O)c1ccc(-c2nc(-c3ccccc3)no2)cc1 [N-(3,3-dimethylbutyl)-4-(3-phenyl-1,2,4-oxadiazol-5-yl)benzamide] |  | 1160 |  | 
CC(C)(C)CCNC(=O)c1ccc(C#Cc2ccccc2)cc1 [N-(3,3-dimethylbutyl)-4-(phenylethynyl)benzamide] |  | 19.4 |  | 
O=C(NCCc1cccc(Cl)c1)c1ccc(C#Cc2ccccc2)cc1 [N-(3-chlorophenethyl)-4-(phenylethynyl)benzamide] |  | 206 |  | 
O=C(NCCCO)c1ccc(C#Cc2ccccc2)cc1 [N-(3-hydroxypropyl)-4-(phenylethynyl)benzamide] |  | 86.2 |  | 
O=C(NCCCN1CCOCC1)c1ccc(C#Cc2ccccc2)cc1 [N-(3-morpholinopropyl)-4-(phenylethynyl)benzamide] |  | 1230 |  | 
O=C(NCCc1ccc(Br)cc1)c1ccc(C#Cc2ccccc2)cc1 [N-(4-bromophenethyl)-4-(phenylethynyl)benzamide] |  | 237 |  | 

Second part, the compound after the results:

Emax (SAR tables) [%] | EC50 [1] [nM] | EC50 [2] [nM] | EC50 (nM) [2] | Compound
86 | 37.9 | 34.9 |  | CC1(O)CCN(C(=O)c2ccc(C#Cc3ccccc3F)cc2)CC1 [Compound 20a, (4-((2-fluorophenyl)ethynyl)phenyl)(4-hydroxy-4-methylpiperidin-1-yl)methanone]
92 | 20.6 | 19.4 |  | CC1(O)CCN(C(=O)c2ccc(C#Cc3cccc(F)c3)cc2)CC1 [Compound 20b, (4-((3-fluorophenyl)ethynyl)phenyl)(4-hydroxy-4-methylpiperidin-1-yl)methanone]
91 | 54.2 | 39.4 |  | CC1(O)CCN(C(=O)c2ccc(C#Cc3ccc(F)cc3)cc2)CC1 [Compound 20c, (4-((4-fluorophenyl)ethynyl)phenyl)(4-hydroxy-4-methylpiperidin-1-yl)methanone]
91 | 156 | 137 |  | CC1(O)CCN(C(=O)c2ccc(C#Cc3ccc(F)c(F)c3)cc2)CC1 [Compound 20d, (4-((3,4-difluorophenyl)ethynyl)phenyl)(4-hydroxy-4-methylpiperidin-1-yl)methanone]
88 | 23.6 | 20.6 |  | O=C(c1ccc(C#Cc2ccccc2F)cc1)N1CCC(CO)CC1 [Compound 20e, (4-((2-fluorophenyl)ethynyl)phenyl)(4-(hydroxymethyl)piperidin-1-yl)methanone]
86 | 11.9 | 11.9 |  | O=C(c1ccc(C#Cc2cccc(F)c2)cc1)N1CCC(CO)CC1 [Compound 20f, (4-((3-fluorophenyl)ethynyl)phenyl)(4-(hydroxymethyl)piperidin-1-yl)methanone]
95 | 26.1 | 24.7 |  | O=C(c1ccc(C#Cc2ccc(F)cc2)cc1)N1CCC(CO)CC1 [Compound 20g, (4-((4-fluorophenyl)ethynyl)phenyl)(4-(hydroxymethyl)piperidin-1-yl)methanone]
104 | 81.7 | 76.3 |  | O=C(c1ccc(C#Cc2ccc(F)c(F)c2)cc1)N1CCC(CO)CC1 [Compound 20h, (4-((3,4-difluorophenyl)ethynyl)phenyl)(4-(hydroxymethyl)piperidin-1-yl)methanone]
105 | 12 | 12 |  | O=C(c1ccc(C#Cc2ccccc2F)cc1)N1CCOCC1 [Compound 20i, (4-((2-fluorophenyl)ethynyl)phenyl)(morpholino)methanone]
112 | 5.32 | 5.3 |  | O=C(c1ccc(C#Cc2cccc(F)c2)cc1)N1CCOCC1 [Compound 20j, (4-((3-fluorophenyl)ethynyl)phenyl)(morpholino)methanone]
107 | 24.7 | 23.6 |  | O=C(c1ccc(C#Cc2ccc(F)cc2)cc1)N1CCOCC1 [Compound 20k, (4-((4-fluorophenyl)ethynyl)phenyl)(morpholino)methanone]
114 | 35.1 | 33.5 |  | O=C(c1ccc(C#Cc2ccc(F)c(F)c2)cc1)N1CCOCC1 [Compound 20l, (4-((3,4-difluorophenyl)ethynyl)phenyl)(morpholino)methanone]
98 | 187 | 166 |  | O=C(c1ccc(C#Cc2ccccc2F)cc1)N1CC(O)C1 [Compound 20m, (4-((2-fluorophenyl)ethynyl)phenyl)(3-hydroxyazetidin-1-yl)methanone]
104 | 73 | 59.5 |  | O=C(c1ccc(C#Cc2cccc(F)c2)cc1)N1CC(O)C1 [Compound 20n, (4-((3-fluorophenyl)ethynyl)phenyl)(3-hydroxyazetidin-1-yl)methanone]
103 | 162 | 155 |  | O=C(c1ccc(C#Cc2ccc(F)cc2)cc1)N1CC(O)C1 [Compound 20o, (4-((4-fluorophenyl)ethynyl)phenyl)(3-hydroxyazetidin-1-yl)methanone]
88 | 387 | 314 |  | O=C(c1ccc(C#Cc2ccc(F)c(F)c2)cc1)N1CC(O)C1 [Compound 20p, (4-((3,4-difluorophenyl)ethynyl)phenyl)(3-hydroxyazetidin-1-yl)methanone]
